Results: patent US6511975B1, “Spiropiperidine derivatives” (Sankyo Company, Limited, priority 1998, dated 2003)

How the values were obtained:
Design in all cases: species or system guinea pig
Settings in all cases: stated in words only
NK2 receptor = biological target: T1, NK2 receptor (Cavia porcellus, UniProt Q64077); assay: NK2 Receptor Binding Test ([3H]-SR-48968, crude ileal membrane specimens)
T1 construct: Crude membrane specimens were prepared from the ileum of male Hartley guinea pigs; from tissue; host or cells: guinea pig ileum (crude membranes)
T1 sequence (Q64077 1-402): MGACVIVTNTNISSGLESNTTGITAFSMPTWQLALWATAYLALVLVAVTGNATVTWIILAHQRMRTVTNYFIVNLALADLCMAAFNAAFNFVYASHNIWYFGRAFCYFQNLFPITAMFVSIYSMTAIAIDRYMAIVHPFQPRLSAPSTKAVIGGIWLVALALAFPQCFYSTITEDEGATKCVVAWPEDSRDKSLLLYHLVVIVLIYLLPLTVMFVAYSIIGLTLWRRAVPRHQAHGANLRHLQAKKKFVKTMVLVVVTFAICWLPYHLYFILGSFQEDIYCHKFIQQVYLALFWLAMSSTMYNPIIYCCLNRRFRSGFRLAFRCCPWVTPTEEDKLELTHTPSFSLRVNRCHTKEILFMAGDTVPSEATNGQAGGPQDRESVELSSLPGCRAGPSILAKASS
Protocol: NK2 Receptor Binding Test
(a) Preparation of Crude Ileal Membrane Specimens
Crude membrane specimens were prepared from the ileum of male Hartley guinea pigs. Namely, the animals were sacrificed by exsanguination from the abdominal aorta under chloroform anesthesia followed promptly by excision of the ileum.
The excised ileum was separated into its contents, secretions and epithelium by scraping with a slide glass. After slicing into thin sections in buffer (1) (50 mM Tris-HCl, pH 7.4), it was homogenized in buffer (2) (buffer (1) containing 120 mM sodium chloride and 5 mM potassium chloride) using a Polytron.
(§1) The tissue mass was removed from the homogenate by passing through a Nylon mesh (50 μm) and separating by centrifugation (30,000×g, 30 minutes, 4° C.).
(§2) The pellet was re-suspended in an ice-cooled Buffer (3) (Buffer (1) containing 10 mM EDTA and 300 mM potassium chloride) and after allowing to stand undisturbed for 60 minutes at 4° C., the resulting suspension was centrifuged and washed twice (30,000×g, 15 minutes, 4° C.).
(§3) The crude membrane specimens were stored at −80° C. until the time of use.
(§4) (b) Receptor Binding Test […]
The filter containing the membrane component was transferred to a mini plastic vial containing 4 ml of Picoflow and radioactivity was measured with a liquid scintillation counter (Beckman. LSC3500).

NK3 receptor = biological target: T2, NK3 receptor (Cavia porcellus, UniProt P30098); assay: NK3 Receptor Binding Test ([3H]-senktide, crude cerebral membrane specimens)
T2 construct: Crude membrane specimens were prepared from the brain of male Hartley guinea pigs; from tissue; host or cells: guinea pig brain (crude membranes)
T2 sequence (P30098 1-440): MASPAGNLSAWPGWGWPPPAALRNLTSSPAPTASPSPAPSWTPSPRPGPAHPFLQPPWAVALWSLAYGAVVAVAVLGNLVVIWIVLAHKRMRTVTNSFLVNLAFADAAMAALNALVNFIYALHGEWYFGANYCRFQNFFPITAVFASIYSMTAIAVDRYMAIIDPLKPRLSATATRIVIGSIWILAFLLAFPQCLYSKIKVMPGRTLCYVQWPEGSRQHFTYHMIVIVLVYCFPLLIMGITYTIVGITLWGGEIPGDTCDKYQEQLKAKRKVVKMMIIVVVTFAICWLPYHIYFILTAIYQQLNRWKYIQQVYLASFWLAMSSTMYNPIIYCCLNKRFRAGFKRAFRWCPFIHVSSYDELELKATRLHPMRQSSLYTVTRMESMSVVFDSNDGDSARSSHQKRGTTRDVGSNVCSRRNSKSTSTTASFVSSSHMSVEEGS
Protocol: NK3 Receptor Binding Test
(a) Preparation of Crude Cerebral Membrane Specimens
Crude membrane specimens were prepared from the brain of male Hartley guinea pigs. Namely, the animals were sacrificed by exsanguination from the abdominal aorta under chloroform anesthesia After perfusing with Buffer (1) (50 mM Tris-HCl, pH 7.4) from the right ventricle, the brain was enucleated immediately. The excised brain was homogenized in buffer (2) (buffer (1) containing 120 mM sodium chloride and 5 mM potassium chloride) using a Polytron. Tissue mass was removed from the homogenate by passing through a Nylon mesh (50 μm) and separating by centrifugation (30,000×g, 30 minutes, 4° C.). […]
The filter containing the membrane component was transferred to a mini plastic vial containing 4 ml of Picoflow and radioactivity was measured with a liquid scintillation counter (Aloka, LSC 3500).
In order to determine the radioactivity due to non-specific binding of [^3H]-senktide (binding to sites other than the receptor, for example, the filter), the Experiment was carried out by adding an excess amount of senktide (final concentration: 10 μM), and the radioactivity was measured.
The inhibitory ratio of senktide-receptor binding due to a test compound was calculated by the following equation. […]
A: radioactivity due to nonspecific binding
B: radioactivity in the test without the addition of a test compound […]

NK1 receptor = biological target: T3, NK1 receptor (Cavia porcellus, UniProt P30547); assay: NK1 Receptor Binding Test ([3H]-substance P, crude pulmonary membrane specimens)
T3 construct: Crude pulmonary membrane specimens were prepared from the lungs of male Hartley guinea pigs; from tissue; host or cells: guinea pig lung (crude membranes)
T3 sequence (P30547 whole entry): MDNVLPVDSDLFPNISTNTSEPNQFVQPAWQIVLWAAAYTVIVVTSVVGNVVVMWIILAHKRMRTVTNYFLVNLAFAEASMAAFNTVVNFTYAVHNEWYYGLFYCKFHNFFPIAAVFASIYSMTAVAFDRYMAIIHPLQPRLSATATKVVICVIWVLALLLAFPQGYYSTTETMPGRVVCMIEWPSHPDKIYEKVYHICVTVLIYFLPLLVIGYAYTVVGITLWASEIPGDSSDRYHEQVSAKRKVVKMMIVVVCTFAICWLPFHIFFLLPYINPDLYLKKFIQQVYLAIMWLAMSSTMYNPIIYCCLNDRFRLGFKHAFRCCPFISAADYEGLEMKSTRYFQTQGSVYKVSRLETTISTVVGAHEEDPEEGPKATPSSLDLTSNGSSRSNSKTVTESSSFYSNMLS
Protocol: NK1 Receptor Binding Test
(a) Preparation of Crude Pulmonary Membrane Specimens
Crude pulmonary membrane specimens were prepared from the lungs of male Hartley guinea pigs. Namely, the animals were sacrificed by exsanguination from the abdominal aorta under chloroform anesthesia followed promptly by excision of lung and respiratory tract tissue.
After perfusing the excised lungs in buffer (1) (50 mM Tris-HCl, pH 7.4), the lungs were sliced into thin sections and then homogenized in a buffer (2) (buffer (1) containing 120 mM sodium chloride and 5 mM potassium chloride) using a Polytron.
as §1, §2, §3, §4
The filter containing the membrane component was transferred to a mini plastic vial containing 4 ml of Picoflow and radioactivity was measured with a liquid scintillation counter (Beckman, LCS3500).

COc1cc(C(=O)N2CCO[C@](CCN3CCC4(CC3)c3ccccc3CC4O)(c3ccc(Cl)c(Cl)c3)C2)cc(OC)c1OC (stereo partly drawn) [Example 1, 1-{2-[(2R)-(3,4-Dichlorophenyl)-4-(3,4,5-trimethoxybenzoyl)morpholin-2-yl]ethyl}spiro[(2-hydroxy)indane-1,4′-piperidine]]
superior to those of Compound A: antagonistic activity against NK2 receptor (NK2 receptor) | antagonistic activity against NK3 receptor (NK3 receptor) | antagonistic activity against NK1 receptor (NK1 receptor)

COc1cc(C(=O)N2CCO[C@](CCN3CCC4(CC3)CC(O)c3ccccc34)(c3ccc(Cl)c(Cl)c3)C2)cc(OC)c1OC (stereo partly drawn) [Example 2, 1-{2-[(2R)-(3,4-Dichlorophenyl)-4-(3,4,5-trimethoxybenzoyl)mopholin-2-yl]ethyl}spiro[(3-hydroxy)indane-1,4′-piperidine]]
superior to those of Compound A: antagonistic activity against NK2 receptor (NK2 receptor) | antagonistic activity against NK3 receptor (NK3 receptor) | antagonistic activity against NK1 receptor (NK1 receptor)
